Measured values taken from US20180002288A1, “USE OF PICOLINAMIDES AS FUNGICIDES” (DOW AGROSCIENCES LLC, priority 2014, published 2018).
Where two headings read alike, the source gives them in different places.

Assays:
Phakopsora pachyrhizi = experiment: Asian Soybean Rust fungicidal activity (PHAKPA); settings: Phakopsora pachyrhizi, in Glycine max
Leptosphaeria nodorum = experiment: Wheat Glume Blotch fungicidal activity (LEPTNO); type: in vivo; settings: Parastagonospora nodorum, 24 h, high volume, 1 Day Protectant, read-out: LEPTNO % Control rating
Description: All fungicides were evaluated using the aforementioned method for their activity vs. all target diseases, unless stated otherwise. Wheat leaf blotch and brown rust activity were also evaluated using track spray applications, in which case the fungicides were formulated as EC formulations, containing 0.1% Trycol 5941 in the spray solutions. Wheat plants (variety Yuma) were grown from seed in a greenhouse in 50% mineral soil/50% soil-less Metro mix until the first leaf was fully emerged, with 7-10 seedlings per pot. These plants were inoculated with an aqueous spore suspension of Zymoseptoria tritici either prior to or after fungicide treatments. After inoculation the plants were kept in 100% relative humidity (one day in a dark dew chamber followed by two to three days in a lighted dew chamber at 20° C.) to permit spores to germinate and infect the leaf. The plants were then transferred to a greenhouse set at 20° C. for disease to develop. When disease symptoms were fully expressed on the 1st leaves of untreated plants, infection levels were assessed on a scale of 0 to 100 percent disease severity. Percent disease control was calculated using the ratio of disease severity on treated plants relative to untreated plants. Wheat plants (variety Yuma) were grown from seed in a greenhouse in 50% mineral soil/50% soil-less Metro mix until the first leaf was fully emerged, with 7-10 seedlings per pot. These plants were inoculated with an aqueous spore suspension of Leptosphaeria nodorum 24 hr after fungicide treatments. After inoculation the plants were kept in 100% relative humidity (one day in a dark dew chamber followed by two days in a lighted dew chamber at 20° C.) to permit spores to germinate and infect the leaf. The plants were then transferred to a greenhouse set at 20° C. for disease to develop. Fungicide formulation, application and disease assessment followed the procedures as described in the Example A.

Cercospora beticola = experiment: Leaf Spot of Sugar Beets fungicidal activity (CERCBE); type: in vivo; settings: 24 h, sugar beet, high volume, 1 Day Protectant, read-out: CERCBE % Control rating
Description: All fungicides were evaluated using the aforementioned method for their activity vs. all target diseases, unless stated otherwise. Wheat leaf blotch and brown rust activity were also evaluated using track spray applications, in which case the fungicides were formulated as EC formulations, containing 0.1% Trycol 5941 in the spray solutions. Wheat plants (variety Yuma) were grown from seed in a greenhouse in 50% mineral soil/50% soil-less Metro mix until the first leaf was fully emerged, with 7-10 seedlings per pot. These plants were inoculated with an aqueous spore suspension of Zymoseptoria tritici either prior to or after fungicide treatments. After inoculation the plants were kept in 100% relative humidity (one day in a dark dew chamber followed by two to three days in a lighted dew chamber at 20° C.) to permit spores to germinate and infect the leaf. The plants were then transferred to a greenhouse set at 20° C. for disease to develop. When disease symptoms were fully expressed on the 1st leaves of untreated plants, infection levels were assessed on a scale of 0 to 100 percent disease severity. Percent disease control was calculated using the ratio of disease severity on treated plants relative to untreated plants. Sugar beet plants (variety HH88) were grown in soil-less Metro mix and trimmed regularly to maintain a uniform plant size prior to test. Plants were inoculated with a spore suspension 24 hr after fungicide treatments. Inoculated plants were kept in a dew chamber at 22° C. for 48 hr then incubated in a greenhouse set at 24° C. under a clear plastic hood with bottom ventilation until disease symptoms were fully expressed. Fungicide formulation, application and disease assessment on the sprayed leaves followed the procedures as described in the Example A.

Puccinia triticina = experiment: Wheat Brown Rust fungicidal activity (PUCCRT); type: in vivo; settings: Low Volume Cereal Activity at 121.5 g/Ha
Zymoseptoria tritici = experiment: Leaf Blotch of Wheat fungicidal activity (SEPTTR); type: in vivo; settings: Low Volume Cereal Activity at 121.5 g/Ha
[1] = 24 h, read-out: PHAKPA 1DP % Control rating, soybean, high volume, 25 ppm, 1 Day Protectant
[2] = 72 h, read-out: PHAKPA 3DC % Control rating, soybean, high volume, 25 ppm, 3 Day Curative
[3] = 24 h, 1 Day Protectant, read-out: PUCCRT 1DP (Wheat Brown Rust, 1 Day Protectant)
[4] = 72 h, 3 Day Curative, read-out: PUCCRT 3DC (Wheat Brown Rust, 3 Day Curative)
[5] = 24 h, 1 Day Protectant, read-out: SEPTTR 1DP (Wheat Leaf Blotch, 1 Day Protectant)
[6] = 72 h, 3 Day Curative, read-out: SEPTTR 3DC (Wheat Leaf Blotch, 3 Day Curative)

SMILES	pest or weed control at 25 ppm (Phakopsora pachyrhizi; [1]) [%]	pest or weed control at 25 ppm (Phakopsora pachyrhizi; [2]) [%]	pest or weed control at 100 ppm (Leptosphaeria nodorum) [%]	pest or weed control at 100 ppm (Cercospora beticola) [%]	pest or weed control at 121.5 g/ha (Puccinia triticina; [3]) [%]	pest or weed control at 121.5 g/ha (Puccinia triticina; [4]) [%]	pest or weed control at 121.5 g/ha (Zymoseptoria tritici; [5]) [%]	pest or weed control at 121.5 g/ha (Zymoseptoria tritici; [6]) [%]
COc1ccnc(C(=O)N[C@@H](C)C(=O)O[C@@H](C)[C@H](Oc2ccccc2)c2ccc(F)cc2F)c1OCOC(C)=O [Example 250]	> 80	< 80	< 0	< 80	> 80	> 80	> 80	> 80
COc1ccnc(C(=O)N[C@@H](C)C(=O)O[C@@H](C)[C@H](Oc2ccccc2)c2ccc3ccccc3c2)c1OCOC(C)=O [Example 263]	–	–	> 80	> 80	> 80	> 80	> 80	> 80
COc1ccnc(C(=O)N[C@@H](C)C(=O)O[C@@H](C)[C@H](Oc2cc(F)cc(Cl)c2)c2ccccc2)c1OC(C)=O [Example 207]	< 80	< 80	> 80	> 80	> 80	< 80	> 80	> 80
COc1ccnc(C(=O)N[C@@H](C)C(=O)O[C@@H](C)[C@H](Oc2cccc(Cl)c2)c2ccccc2)c1OCOC(C)=O [Example 202]	> 80	< 80	< 80	< 80	> 80	< 80	> 80	> 80
COc1ccnc(C(=O)N[C@@H](C)C(=O)O[C@@H](C)[C@H](Oc2ccccc2)c2ccccc2)c1OCOC(C)=O [Example 183]	< 80	< 80	> 80	> 80	> 80	> 80	> 80	> 80
COc1ccnc(C(=O)N[C@@H](C)C(=O)O[C@@H](C)[C@H](Oc2ccccc2)c2ccc(F)cc2C)c1OCOC(C)=O [Example 259]	> 80	< 0	> 80	> 80	> 80	> 80	> 80	> 80
COc1ccnc(C(=O)N[C@@H](C)C(=O)O[C@@H](C)[C@H](Oc2ccccc2Cl)c2ccccc2)c1OC(C)=O [Example 205]	< 80	< 80	> 80	> 80	> 80	> 80	> 80	> 80
COc1ccnc(C(=O)N[C@@H](C)C(=O)O[C@@H](C)[C@H](Oc2ccccc2)c2ccc(C)cc2)c1OCOC(C)=O [Example 252]	–	–	> 80	> 80	> 80	> 80	> 80	> 80
